Data from publication PMC8693618 (Bioorganic & medicinal chemistry, 2021).
Read-outs that look alike come from different tables or passages of the source. Values belong to the compound of their own block, whether it stands above or below them.

Key:
human PANK3 = human PANK3 (Homo sapiens, UniProt Q9H999); conditions: tested up to 10 μM
[1] = passive permeability; previously determined ref 8; cited from earlier work
Caco2 = conditions: previously determined ref 8; cited from earlier work
Plasma Protein [2] = conditions: mouse; previously determined ref 8; cited from earlier work
Plasma Protein [3] = conditions: rat; previously determined ref 8; cited from earlier work
Plasma Protein [4] = conditions: human; previously determined ref 8; cited from earlier work
[5] = mouse, rat, and human plasma; previously determined ref 8; cited from earlier work
[6] = PAMPA passive permeability; format: in vitro ADME

Sequence of human PANK3 (Q9H999 whole entry): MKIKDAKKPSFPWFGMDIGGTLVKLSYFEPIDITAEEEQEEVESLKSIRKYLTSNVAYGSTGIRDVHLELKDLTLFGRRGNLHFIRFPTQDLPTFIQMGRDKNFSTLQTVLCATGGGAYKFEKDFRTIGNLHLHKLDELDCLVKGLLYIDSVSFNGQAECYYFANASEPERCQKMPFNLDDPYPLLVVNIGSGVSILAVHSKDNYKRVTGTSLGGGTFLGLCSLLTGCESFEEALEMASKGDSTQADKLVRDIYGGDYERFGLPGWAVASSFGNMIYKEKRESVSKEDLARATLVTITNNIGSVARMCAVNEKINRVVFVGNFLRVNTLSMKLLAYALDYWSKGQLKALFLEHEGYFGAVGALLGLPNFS

SMILES: CC(C)c1ccc(CC(=O)N2CCN(c3ccc(C#N)nn3)CC2)cc1 [Compound 57, 6-(4-(2-(4-isopropylphenyl)acetyl)piperazin-1-yl) pyridazine-3-carbonitrile]
- PAMPA [1]: 413 1 × 10^−6 cm/s
- Caco2 Permeability A/B (Caco2): 302 nm/s
- Plasma Protein Binding (Plasma Protein [2]): 92%
- Plasma Protein Binding (Plasma Protein [3]): 91%
- Plasma Protein Binding (Plasma Protein [4]): 93%
- Plasma Stability T1/2 [5]: >48 h

SMILES: CCCCc1ccc(NC(=O)N2CCN(c3ccc(C#N)cn3)CC2)cc1 [Compound 8, N-(4-butylphenyl)-4-(5-cyanopyridin-2-yl)piperazine-1-carboxamide]
- PANK3 inhibitory activity in words (human PANK3): did not show activity

SMILES: CCc1ccc(NC(=O)N2CCN(c3ccc(C#N)cn3)CC2)cc1 [Compound 3, 4-(5-cyanopyridin-2-yl)-N-(4-ethylphenyl)piperazine-1-carboxamide]
- PANK3 inhibitory activity in words (human PANK3): did not show activity

SMILES: CC(C)(C)c1ccc(NC(=O)N2CCN(c3ccc(C#N)cn3)CC2)cc1 [Compound 1, N-(4-(tert-butyl)phenyl)-4-(5-cyanopyridin-2-yl) piperazine-1-carboxamide]
- PAMPA [6]: 1232 1 × 10^−6 cm/s

SMILES: N#Cc1ccc(N2CCN(C(=O)Nc3ccc(Br)cc3)CC2)nc1 [Compound 14, N-(4-bromophenyl)-4-(5-cyanopyridin-2-yl)piperazine-1-carboxamide]
- PANK3 inhibitory activity in words (human PANK3): inactive

Now from value to compound:

- PANK3 inhibitory activity in words (human PANK3): loss of activity
SMILES: CC(C)c1ccc(C(=O)CN2CCN(c3ccc(C#N)cn3)CC2)cc1 [Compound 32, 6-(4-(2-(4-isopropylphenyl)-2-oxoethyl)piperazin-1-yl)nicotinonitrile]

- PANK3 inhibitory activity in words (human PANK3): complete loss of activity
SMILES: CC(C)c1ccc(C(=O)N2CCN(c3ccc(C#N)cn3)CC2)cc1 [Compound 28, 6-(4-(4-isopropylbenzoyl)piperazin-1-yl) nicotinonitrile]

- PAMPA [6]: 316 1 × 10^−6 cm/s
SMILES: CC(C)c1ccc(NC(=O)N2CCN(c3ccc(C#N)nn3)CC2)cc1 [Compound 56, 4-(6-cyanopyridazin-3-yl)-N-(4-isopropylphenyl) piperazine-1-carboxamide]

- PANK3 inhibitory activity in words (human PANK3): inactive
SMILES: N#Cc1ccc(N2CCN(C(=O)Nc3ccc(C(F)(F)F)cc3)CC2)nc1 [Compound 18, 4-(5-cyanopyridin-2-yl)-N-(4-(trifluoromethyl)phenyl)piperazine-1-carboxamide]
